Source: US12357610B2, “Aryl-substituted acetamide and pyrrolidin-2-one derivatives and their use for the treatment of seizures” (University of Houston System, priority 2017, dated 2025)

System: convulsions in animal models of medically refractory epilepsy
Assay: rodent models of medically refractory epilepsy (FIG. 12)
Type: in vivo
Conditions: multiple rodent models

CCC1(c2ccccc2)CCNC1=O (racemic) [3-ethyl-3-phenylpyrrolidin-2-one]
activity in preventing convulsions in animal models of medically refractory epilepsy: active
